Values of other authors in patent US11766390B2, “Method for dyeing keratinous material, comprising the use of an organosilicon compound, a colored effect pigment and a film-forming polymer II” (Henkel AG & Co. KGaA, priority 2019, dated 2023).

Settings: for solubility in water: 25° C.

| SMILES | solubility in water (in words) (at 25° C.) | solubility in water |
| --- | --- | --- |
| CCN(Cc1cccc(S(=O)(=O)[O-])c1)c1ccc(C(=C2C=CC(=[N+](CC)Cc3cccc(S(=O)(=O)[O-])c3)C=C2)c2ccccc2S(=O)(=O)[O-])cc1.[Na+].[Na+] [Acid Blue 9] | – | more than 20 % by weight |
| O=S(=O)([O-])c1ccc(N=Nc2c(O)ccc3ccccc23)cc1.[Na+] [Acid Orange 7, sodium salt of 4-[(2-hydroxy-1-naphthyl)azo]benzene sulphonate] | – | more than 7 g/L |
| Nc1cc(S(=O)(=O)[O-])cc2cc(S(=O)(=O)[O-])c(N=Nc3ccccc3)c(O)c12.[Na+].[Na+] [Acid Red 33, disodium salt of 5-amino-4-hydroxy-3-(phenylazo)-naphthalene-2,7-disulphonate] | – | 2500 µg/mL |
| O=C([O-])c1c(Cl)c(Cl)c(Cl)c(Cl)c1-c1c2c(Br)cc(=O)c(Br)c-2oc2c(Br)c(O)cc(Br)c12.O=C([O-])c1c(Cl)c(Cl)c(Cl)c(Cl)c1-c1c2c(Br)cc(=O)c(Br)c-2oc2c(Br)c(O)cc(Br)c12.[Na+].[Na+] [Acid Red 92, disodium salt of 3,4,5,6-tetrachloro-2-(1,4,5,8-tetrabromo-6-hydroxy-3-oxoxanthen-9-yl)benzoic acid] | – | greater than 10 g/L |
| O=C([O-])C1=NN(c2ccc(S(=O)(=O)[O-])cc2)C(=O)C1N=Nc1ccc(S(=O)(=O)[O-])cc1.[Na+].[Na+].[Na+] (centres unmarked) [Acid Yellow 23, trisodium salt of 4,5-dihydro-5-oxo-1-(4-sulfophenyl)-4-((4-sulfophenyl)azo)-1H-pyrazole-3-carboxylic acid] | highly soluble | – |
